Laboratory results reported in patent US12195482B1 (Arcus Biosciences, Inc., priority 2022, dated 2025).

Legend:
recombinant human MER = target: T1, recombinant human MER (Homo sapiens, UniProt Q12866); assay: Biochemical potency, HTRF KinEASE-TK kinase assay; details: 1 nM MER, 700 μM ATP
T1 construct: purchased Invitrogen
T1 sequence (Q12866 21-999): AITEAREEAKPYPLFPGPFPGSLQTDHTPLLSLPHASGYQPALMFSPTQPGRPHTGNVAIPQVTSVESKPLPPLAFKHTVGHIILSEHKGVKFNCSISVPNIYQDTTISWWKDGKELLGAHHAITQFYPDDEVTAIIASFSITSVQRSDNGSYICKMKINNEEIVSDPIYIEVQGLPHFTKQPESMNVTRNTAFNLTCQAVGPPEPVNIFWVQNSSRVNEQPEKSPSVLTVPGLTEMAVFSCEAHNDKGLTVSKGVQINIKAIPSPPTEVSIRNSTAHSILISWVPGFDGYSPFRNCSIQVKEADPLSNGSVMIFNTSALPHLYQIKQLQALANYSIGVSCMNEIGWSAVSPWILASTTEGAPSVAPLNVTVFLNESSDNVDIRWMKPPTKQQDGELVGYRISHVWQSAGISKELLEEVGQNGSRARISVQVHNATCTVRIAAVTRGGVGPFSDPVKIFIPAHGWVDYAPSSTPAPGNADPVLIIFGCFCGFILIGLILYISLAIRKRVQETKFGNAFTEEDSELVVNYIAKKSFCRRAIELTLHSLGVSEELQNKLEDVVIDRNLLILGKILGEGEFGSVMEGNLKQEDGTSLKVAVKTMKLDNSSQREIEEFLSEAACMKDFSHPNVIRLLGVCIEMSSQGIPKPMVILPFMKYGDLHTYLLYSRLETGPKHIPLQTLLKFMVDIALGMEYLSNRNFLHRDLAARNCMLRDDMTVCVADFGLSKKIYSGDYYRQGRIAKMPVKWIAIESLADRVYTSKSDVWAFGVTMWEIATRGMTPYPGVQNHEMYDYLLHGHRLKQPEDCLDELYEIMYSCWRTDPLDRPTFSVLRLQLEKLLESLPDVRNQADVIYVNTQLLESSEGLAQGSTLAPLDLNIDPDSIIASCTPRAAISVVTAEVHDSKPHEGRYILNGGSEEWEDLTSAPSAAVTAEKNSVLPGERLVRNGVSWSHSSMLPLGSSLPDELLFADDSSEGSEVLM
In short: (§1)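 Steps: compound plus kinase, 1 h RT; add ATP (700 µM final) and biotin-TK substrate (800 nM final); run 2 h RT; stop into streptavidin-XL665/anti-phospho cryptate detection mix, 1 h; read 665/620. AXL at 5 nM, TYRO3 and MER at 1 nM.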

recombinant human TYRO3 = target: T2, recombinant human TYRO3 (Homo sapiens, UniProt Q06418); assay: Biochemical potency, HTRF KinEASE-TK kinase assay; details: 1 nM TYRO3, 700 μM ATP
T2 construct: purchased Invitrogen
T2 sequence (Q06418 41-890): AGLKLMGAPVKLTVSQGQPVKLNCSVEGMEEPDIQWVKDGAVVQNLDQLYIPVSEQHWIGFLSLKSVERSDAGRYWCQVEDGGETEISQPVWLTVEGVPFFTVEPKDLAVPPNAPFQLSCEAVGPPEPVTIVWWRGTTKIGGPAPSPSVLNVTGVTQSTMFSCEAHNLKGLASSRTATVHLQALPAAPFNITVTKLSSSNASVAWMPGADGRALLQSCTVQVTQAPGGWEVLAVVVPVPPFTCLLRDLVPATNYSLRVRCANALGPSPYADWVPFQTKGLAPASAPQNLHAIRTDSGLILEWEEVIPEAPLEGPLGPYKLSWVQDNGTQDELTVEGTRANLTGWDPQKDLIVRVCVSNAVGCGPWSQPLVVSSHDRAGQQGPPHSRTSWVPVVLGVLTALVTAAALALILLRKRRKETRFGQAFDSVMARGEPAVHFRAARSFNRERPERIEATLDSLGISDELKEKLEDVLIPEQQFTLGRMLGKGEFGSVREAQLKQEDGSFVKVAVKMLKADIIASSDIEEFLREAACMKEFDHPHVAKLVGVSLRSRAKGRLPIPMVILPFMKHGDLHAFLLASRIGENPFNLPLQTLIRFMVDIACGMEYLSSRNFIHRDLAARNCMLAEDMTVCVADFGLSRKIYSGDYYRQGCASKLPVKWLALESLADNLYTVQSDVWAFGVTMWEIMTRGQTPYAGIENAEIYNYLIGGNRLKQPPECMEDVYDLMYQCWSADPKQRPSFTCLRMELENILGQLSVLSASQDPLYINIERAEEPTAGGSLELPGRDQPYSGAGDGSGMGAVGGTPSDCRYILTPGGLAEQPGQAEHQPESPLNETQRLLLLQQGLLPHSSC
In short: as §1

| SMILES | IC50 (recombinant human MER) [nM] | IC50 (recombinant human TYRO3) [nM] |
| --- | --- | --- |
| Cc1ccnnc1-c1ccc(-c2n[nH]c3ncc(-c4ccc5c(c4)CC[C@@H](N4C6COCC4C6)CC5)cc23)cc1 [Example 176, 6-[(7S)-2-{3-[4-(4-Methylpyridazin-3-yl)phenyl]-1H-pyrazolo[3,4-b]pyridin-5-yl}-6,7,8,9-tetrahydro-5H-benzo[7]annulen-7-yl]-3-oxa-6-azabicyclo[3.1.1]heptane] | < 100 | < 100 |
| CC(C)(O)c1ccccc1-c1ccc(-c2n[nH]c3ncc(-c4ccc5c(c4)CC[C@@H](N4C6COCC4C6)CC5)cc23)cn1 [Example 113, 2-[2-(5-{5-[(7S)-7-{3-Oxa-6-azabicyclo[3.1.1]heptan-6-yl}-6,7,8,9-tetrahydro-5H-benzo[7]annulen-2-yl]-1H-pyrazolo[3,4-b]pyridin-3-yl}pyridin-2-yl)phenyl]propan-2-ol] | 100 to 1000 | 100 to 1000 |
| FC(F)Oc1cccnc1-c1ccc(-c2n[nH]c3ncc(-c4ccc5c(c4)CC[C@@H](N4C6COCC4C6)CC5)cc23)cc1 [Example 99, 6-[(7S)-2-(3-{4-[3-(Difluoromethoxy)pyridin-2-yl]phenyl}-1H-pyrazolo[3,4-b]pyridin-5-yl)-6,7,8,9-tetrahydro-5H-benzo[7]annulen-7-yl]-3-oxa-6-azabicyclo[3.1.1]heptane] | 100 to 1000 | 100 to 1000 |
| CN(C)C(=O)c1ccccc1-c1ccc(-c2c[nH]c3ncc(-c4ccc5c(c4)CC[C@@H](N4C6COCC4C6)CC5)cc23)cn1 [Example 170, N,N-Dimethyl-2-(5-{5-[(7S)-7-{3-oxa-6-azabicyclo[3.1.1]heptan-6-yl}-6,7,8,9-tetrahydro-5H-benzo[7]annulen-2-yl]-1H-pyrrolo[2,3-b]pyridin-3-yl}pyridin-2-yl)benzamide] | 100 to 1000 | 100 to 1000 |
| Cc1cc(-c2n[nH]c3ncc(-c4ccc5c(c4)CC[C@@H](N4C6COCC4C6)CC5)cc23)ccc1-c1ccccn1 [Example 159, 6-[(7S)-2-{3-[3-Methyl-4-(pyridin-2-yl)phenyl]-2H-pyrazolo[3,4-b]pyridin-5-yl}-6,7,8,9-tetrahydro-5H-benzo[7]annulen-7-yl]-3-oxa-6-azabicyclo[3.1.1]heptane] | 100 to 1000 | 100 to 1000 |
| O=C(c1cccnc1-c1ccc(-c2n[nH]c3ncc(-c4ccc5c(c4)CC[C@@H](N4C6COCC4C6)CC5)cc23)cc1)N1CCCC1 [Example 4, 6-[(7S)-2-(3-{4-[3-(Pyrrolidine-1-carbonyl)pyridin-2-yl]phenyl}-1H-pyrazolo[3,4-b]pyridin-5-yl)-6,7,8,9-tetrahydro-5H-benzo[7]annulen-7-yl]-3-oxa-6-azabicyclo[3.1.1]heptane] | 100 to 1000 | 100 to 1000 |
| CN(C)C(=O)c1ccccc1-c1ccc(-c2n[nH]c3ncc(-c4ccc5c(c4)CC[C@@H](N4C6COCC4C6)CC5)cc23)cc1 [Example 12, N,N-Dimethyl-4′-{5-[(7S)-7-{3-oxa-6-azabicyclo[3.1.1]heptan-6-yl}-6,7,8,9-tetrahydro-5H-benzo[7]annulen-2-yl]-2H-pyrazolo[3,4-b]pyridin-3-yl}-[1,1′-biphenyl]-2-carboxamide] | 100 to 1000 | 100 to 1000 |
| CC(C)(O)c1cccnc1-c1ccc(-c2n[nH]c3ncc(-c4ccc5c(c4)CC[C@@H](N4C6COCC4C6)CC5)cc23)cc1 [Example 10, 2-[2-(4-{5-[(7S)-7-{3-Oxa-6-azabicyclo[3.1.1]heptan-6-yl}-6,7,8,9-tetrahydro-5H-benzo[7]annulen-2-yl]-1H-pyrazolo[3,4-b]pyridin-3-yl}phenyl)pyridin-3-yl]propan-2-ol] | 100 to 1000 | < 100 |
| CCc1cccnc1-c1ccc(-c2c[nH]c3ncc(-c4ccc5c(c4)CC[C@@H](N4C6COCC4C6)CC5)cc23)cc1 [Example 183, 6-[(7S)-2-{3-[4-(3-Ethylpyridin-2-yl)phenyl]-1H-pyrrolo[2,3-b]pyridin-5-yl}-6,7,8,9-tetrahydro-5H-benzo[7]annulen-7-yl]-3-oxa-6-azabicyclo[3.1.1]heptane] | 100 to 1000 | < 100 |
| Cn1ncnc1-c1ccc(-c2n[nH]c3ncc(-c4ccc5c(c4)CC[C@@H](N4C6COCC4C6)CC5)cc23)cc1 [Example 110, 6-[(7S)-2-{3-[4-(1-Methyl-1H-1,2,4-triazol-5-yl)phenyl]-2H-pyrazolo[3,4-b]pyridin-5-yl}-6,7,8,9-tetrahydro-5H-benzo[7]annulen-7-yl]-3-oxa-6-azabicyclo[3.1.1]heptane] | 100 to 1000 | < 100 |
| Cc1cccnc1-c1ccc(-c2n[nH]c3ncc(-c4ccc5c(c4)CC[C@@](C)(N4CCC[C@H]4C)CC5)cc23)nc1 [Example 105, 3-Methyl-6′-{5-[(7S)-7-methyl-7-[(2R)-2-methylpyrrolidin-1-yl]-6,7,8,9-tetrahydro-5H-benzo[7]annulen-2-yl]-1H-pyrazolo[3,4-b]pyridin-3-yl}-2,3′-bipyridine] | < 100 | < 100 |
| Cn1nccc1-c1ccc(-c2n[nH]c3ncc(-c4ccc5c(c4)CC[C@@H](N4C6COCC4C6)CC5)cc23)cc1 [Example 109, 6-[(7S)-2-{3-[4-(1-Methyl-1H-pyrazol-5-yl)phenyl]-1H-pyrazolo[3,4-b]pyridin-5-yl}-6,7,8,9-tetrahydro-5H-benzo[7]annulen-7-yl]-3-oxa-6-azabicyclo[3.1.1]heptane] | 100 to 1000 | 100 to 1000 |
| c1cnc(-c2ccc(-c3c[nH]c4ncc(-c5ccc6c(c5)CC[C@@H](N5C7COCC5C7)CC6)cc34)cc2)c(N2CCOCC2)c1 [Example 5, 6-[(7S)-2-(3-{4-[3-(Morpholin-4-yl)pyridin-2-yl]phenyl}-1H-pyrrolo[2,3-b]pyridin-5-yl)-6,7,8,9-tetrahydro-5H-benzo[7]annulen-7-yl]-3-oxa-6-azabicyclo[3.1.1]heptane] | 100 to 1000 | < 100 |
| O=C1OCCN1c1cccnc1-c1ccc(-c2n[nH]c3ncc(-c4ccc5c(c4)CC[C@@H](N4C6COCC4C6)CC5)cc23)cc1 [Example 121, 3-[2-(4-{5-[(7S)-7-{3-Oxa-6-azabicyclo[3.1.1]heptan-6-yl}-6,7,8,9-tetrahydro-5H-benzo[7]annulen-2-yl]-1H-pyrazolo[3,4-b]pyridin-3-yl}phenyl)pyridin-3-yl]-1,3-oxazolidin-2-one] | < 100 | < 100 |
| C[C@@H]1COC(=O)N1c1cccnc1-c1ccc(-c2n[nH]c3ncc(-c4ccc5c(c4)CC[C@@H](N4C6COCC4C6)CC5)cc23)cc1 [Example 124, (4R)-4-Methyl-3-[2-(4-{5-[(7S)-7-{3-oxa-6-azabicyclo[3.1.1]heptan-6-yl}-6,7,8,9-tetrahydro-5H-benzo[7]annulen-2-yl]-1H-pyrazolo[3,4-b]pyridin-3-yl}phenyl)pyridin-3-yl]-1,3-oxazolidin-2-one] | < 100 | < 100 |
| CCOc1cccnc1-c1ccc(-c2n[nH]c3ncc(-c4ccc5c(c4)CC[C@@H](N4C6COCC4C6)CC5)cc23)cc1 [Example 181, 6-[(7S)-2-{3-[4-(3-Ethoxypyridin-2-yl)phenyl]-1H-pyrazolo[3,4-b]pyridin-5-yl}-6,7,8,9-tetrahydro-5H-benzo[7]annulen-7-yl]-3-oxa-6-azabicyclo[3.1.1]heptane] | 100 to 1000 | 100 to 1000 |
